The subject of test [1] is Radical scavenging activity. Nature of the test: Antioxidant activity assessed as DPPH free radical scavenging activity at 250 ug/mL after 30 min by spectrophotometric analysis. The format is functional. On the technique in general: The DPPH test is a chemical assay of radical scavenging.
The nature of test [2]: Antioxidant activity assessed as reduction of Fe3+ to Fe2+ measured Fe2+ equivalent per gram dry mass after 4 min by spectrophotometric analysis. The format is functional.
The test system of test [3] is Radical scavenging activity. Nature of the test: Antioxidant activity assessed as DPPH free radical scavenging activity at 125 ug/mL after 30 min by spectrophotometric analysis. It counts as functional.
For test [4], the system named is Radical scavenging activity. Kind of test: Antioxidant activity assessed as DPPH free radical scavenging activity at 500 ug/mL after 30 min by spectrophotometric analysis. The format is functional.
The subject of test [5] is Radical scavenging activity. Nature of the test: Antioxidant activity assessed as DPPH free radical scavenging activity at 1000 ug/mL after 30 min by spectrophotometric analysis. It counts as functional.
Test [6] is described as follows: Antioxidant activity assessed as reduction of Cu2+ to Cu+ at 125 to 1000 ug/mL after 30 min by spectrophotometric analysis. The format is functional.
The next test deals with Trichophyton rubrum. Nature of the test: Antifungal activity against Trichophyton rubrum 57/01 assessed as growth inhibition after 48 to 72 hr by two-fold serial dilution method. It counts as functional.
Test [7] relates to Trichophyton mentagrophytes. Kind of test: Antifungal activity against Trichophyton mentagrophytes 66/01 assessed as growth inhibition after 48 to 72 hr by two-fold serial dilution method. It counts as functional.
Another test has as its system Malassezia pachydermatis. Kind of test: Antifungal activity against Malassezia pachydermatis assessed as growth inhibition after 48 to 72 hr by two-fold serial dilution method. The format is functional.
A further test has as its system Scopulariopsis. Kind of test: Antifungal activity against Scopulariopsis sp. 101/01 assessed as growth inhibition after 48 to 72 hr by two-fold serial dilution method. The format is functional.
Another test has as its system Botrytis cinerea. Kind of test: Antifungal activity against Botryotinia fuckeliana assessed as growth inhibition after 48 to 72 hr by two-fold serial dilution method. The format is functional.
For another test, the system named is Candida albicans. Kind of test: Antifungal activity against Candida albicans MTCC 227 assessed as growth inhibition after 48 to 72 hr by two-fold serial dilution method. The format is functional.
In a further test the test system is Aspergillus flavus. Kind of test: Antifungal activity against Aspergillus flavus assessed as growth inhibition after 48 to 72 hr by two-fold serial dilution method. The format is functional.
Another test relates to Pseudomonas aeruginosa. Kind of test: Antibacterial activity against Pseudomonas aeruginosa MTCC 741 assessed as growth inhibition after 24 hr by two-fold serial dilution method. It counts as functional. To be noted: MTCC 741, 24 h.
Test [8] deals with Klebsiella pneumoniae. Kind of test: Antibacterial activity against Klebsiella pneumoniae ESBL 3894 clinical isolate assessed as growth inhibition after 24 hr by two-fold serial dilution method. It counts as functional. The following applies: ESBL 3894, 24 h.
The test system of the next test is Bacillus subtilis. Nature of the test: Antibacterial activity against Bacillus subtilis MTCC 441 assessed as growth inhibition after 24 hr by two-fold serial dilution method. The format is functional. The following applies: MTCC 441, 24 h.
The test system of test [9] is Salmonella enterica subsp. enterica serovar Paratyphi B. Nature of the test: Antibacterial activity against Salmonella enterica subsp. enterica serovar Paratyphi B assessed as growth inhibition after 24 hr by two-fold serial dilution method. The format is functional.
Test [10] relates to Escherichia coli. Kind of test: Antibacterial activity against Escherichia coli ESBL 3984 clinical isolate assessed as growth inhibition after 24 hr by two-fold serial dilution method. It counts as functional. The following applies: ESBL 3984, 24 h.
For another test, the system named is Micrococcus luteus. Nature of the test: Antibacterial activity against Micrococcus luteus assessed as growth inhibition after 24 hr by two-fold serial dilution method. The format is functional.
The subject of test [11] is Klebsiella pneumoniae. Nature of the test: Antibacterial activity against Klebsiella pneumoniae ESBL 3971 clinical isolate assessed as growth inhibition after 24 hr by two-fold serial dilution method. It counts as functional. The following applies: ESBL 3971, 24 h.
In test [12] the test system is Klebsiella pneumoniae. Nature of the test: Antibacterial activity against Klebsiella pneumoniae ESBL 75799 clinical isolate assessed as growth inhibition after 24 hr by two-fold serial dilution method. The following applies: ESBL 75799, 24 h. The format is functional.
For test [13], the system named is Staphylococcus aureus. Nature of the test: Antibacterial activity against methicillin-resistant Staphylococcus aureus clinical isolate assessed as growth inhibition after 24 hr by two-fold serial dilution method. The format is functional.
Test [14] deals with Staphylococcus epidermidis. Nature of the test: Antibacterial activity against Staphylococcus epidermidis MTCC 3615 assessed as growth inhibition after 24 hr by two-fold serial dilution method. The format is functional. To be noted: MTCC 3615, 24 h.
For the next test, the system named is Salmonella typhimurium. Nature of the test: Antibacterial activity against Salmonella enterica subsp. enterica serovar Typhimurium MTCC 1251 assessed as growth inhibition after 24 hr by two-fold serial dilution method. It counts as functional. The following applies: MTCC 1251, 24 h.
In test [15] the test system is Klebsiella pneumoniae. Nature of the test: Antibacterial activity against Klebsiella pneumoniae ESBL 3967 clinical isolate assessed as growth inhibition after 24 hr by two-fold serial dilution method. The format is functional. To be noted: ESBL 3967, 24 h.
The test system of test [16] is Staphylococcus aureus. Nature of the test: Antibacterial activity against Staphylococcus aureus MTCC 96 assessed as growth inhibition after 24 hr by two-fold serial dilution method. It counts as functional. To be noted: MTCC 96, 24 h.
The test system of the next test is Shigella flexneri. Nature of the test: Antibacterial activity against Shigella flexneri MTCC 1457 assessed as growth inhibition after 24 hr by two-fold serial dilution method. The format is functional. To be noted: MTCC 1457, 24 h.
Test [17] relates to Escherichia coli. Kind of test: Antibacterial activity against Escherichia coli ESBL 3904 clinical isolate assessed as growth inhibition after 24 hr by two-fold serial dilution method. To be noted: ESBL 3904, 24 h. The format is functional.
The test system of test [18] is COLO 320. Nature of the test: Cytotoxicity against Homo sapiens (human) COLO320 cells at 100 ug/mL by MTT assay. It counts as functional. For orientation: Tetrazolium assays rely on reduction of a dye to a coloured formazan, in cell work by metabolically active cells.
A short description of test [19]: Antioxidant activity assessed as reduction of Cu2+ to Cu+ after 30 min by spectrophotometric analysis. It counts as functional.
For test [20], the system named is COLO 320. Nature of the test: Cytotoxicity against Homo sapiens (human) COLO320 cells at 50 ug/mL by MTT assay. The format is functional.
Test [21] relates to COLO 320. Nature of the test: Cytotoxicity against Homo sapiens (human) COLO320 cells at 200 ug/mL by MTT assay. It counts as functional.
The test system of test [22] is COLO 320. Kind of test: Cytotoxicity against Homo sapiens (human) COLO320 cells at 25 ug/mL by MTT assay. The format is functional.
Test [23] has as its system COLO 320. Kind of test: Cytotoxicity against Homo sapiens (human) COLO320 cells by MTT assay.
Test [24] deals with COLO 320. Nature of the test: Cytotoxicity against Homo sapiens (human) COLO320 cells at 10 ug/mL by MTT assay. It counts as functional.

≈ marks a conversion by molar mass, not a printed value. Calls of active or inactive are those of the source. The calls are words filed in the database; no cut-off is given here.

In ChEMBL document CHEMBL3045925 (Med Chem Res, 2013) one finds Activity, MIC and IC50 data, which are given here for four molecules.

Take `Cc1cc(C(C)(C)C)c(O)c(C(C)(C)C)c1`: the Activity in [1] was 71.7%; in test [2] it was 2.21 mMequiv; in test [3], 60.9%; in test [4], 80.9%; in test [5] it was 90.1%. Also, in [6], the outcome was Active.

For the molecule `CC(=O)N1CCN(c2ccc(OCC3COC(Cn4ccnc4)(c4ccc(Cl)cc4Cl)O3)cc2)CC1` (configuration not stated) [KETOCONAZOLE], the MIC – broadly, the lowest concentration found to suppress growth – with Trichophyton rubrum is < 12.5 µg/mL; in test [7], < 12.5 µg/mL; in the test with Malassezia pachydermatis, 12.5 µg/mL (≈ 23.5 µM); in the test on Scopulariopsis it was < 12.5 µg/mL; in the test on Botrytis cinerea, < 12.5 µg/mL; in the test with Candida albicans it was 25 µg/mL (≈ 47 µM). For the same molecule, the MIC in the test with Aspergillus flavus was < 12.5 µg/mL.

As to `CN[C@@H]1[C@H](O[C@H]2[C@H](O[C@H]3[C@H](O)[C@@H](O)[C@H](N=C(N)N)[C@@H](O)[C@@H]3N=C(N)N)O[C@@H](C)[C@]2(O)C=O)O[C@@H](CO)[C@H](O)[C@H]1O` [STREPTOMYCIN], the MIC with Pseudomonas aeruginosa turned out to be 25 µg/mL (≈ 43 µM); with Klebsiella pneumoniae [8] it was 6.25 µg/mL (≈ 10.7 µM); with Bacillus subtilis, 25 µg/mL (≈ 43 µM); with Escherichia coli [10], 25 µg/mL (≈ 43 µM); in the test on Micrococcus luteus, 6.25 µg/mL (≈ 10.7 µM); in the test on Klebsiella pneumoniae [11], 6.25 µg/mL (≈ 10.7 µM). Moreover, the MIC in the test on Klebsiella pneumoniae [12] worked out at 25 µg/mL (≈ 43 µM); in the test with Staphylococcus aureus [13] it was 6.25 µg/mL (≈ 10.7 µM); in test [14], 25 µg/mL (≈ 43 µM); with Salmonella typhimurium it was 30 µg/mL (≈ 51.6 µM); with Klebsiella pneumoniae [15], 25 µg/mL (≈ 43 µM); in the test on Staphylococcus aureus [16], 6.25 µg/mL (≈ 10.7 µM). The MIC with Shigella flexneri came out at 6.25 µg/mL (≈ 10.7 µM); in the test with Escherichia coli [17] it was 25 µg/mL (≈ 43 µM). For the same molecule, the MIC result in test [9] is “inactive”.

As for `COc1cc(/C=C/C(=O)NCCCCNC(=O)/C=C/c2ccc(O)c(OC)c2)ccc1O` [TERRESTRIBISAMIDE], the MIC in the test with Pseudomonas aeruginosa is > 200 µg/mL; in the test on Klebsiella pneumoniae [8] it was > 200 µg/mL; in the test on Bacillus subtilis it was 200 µg/mL (≈ 454 µM); in test [9], > 200 µg/mL; with Escherichia coli [10] it was 200 µg/mL (≈ 454 µM); with Trichophyton rubrum it was > 200 µg/mL. In addition, the MIC in [7] was > 200 µg/mL; in the test on Micrococcus luteus it was 200 µg/mL (≈ 454 µM); with Klebsiella pneumoniae [11], > 200 µg/mL; in the test with Klebsiella pneumoniae [12], > 200 µg/mL; in the test with Malassezia pachydermatis, 200 µg/mL (≈ 454 µM); with Staphylococcus aureus [13], > 200 µg/mL. For the same molecule, the minimal inhibitory concentration (MIC) in the test with Scopulariopsis is > 200 µg/mL; in the test on Botrytis cinerea, > 200 µg/mL; in the test with Candida albicans it was 200 µg/mL (≈ 454 µM); in test [14], 200 µg/mL (≈ 454 µM); with Salmonella typhimurium it was > 200 µg/mL; with Klebsiella pneumoniae [15], > 200 µg/mL. Further, the MIC in the test on Staphylococcus aureus [16] is > 200 µg/mL; in the test on Shigella flexneri, > 200 µg/mL; with Aspergillus flavus, > 200 µg/mL; in the test with Escherichia coli [17], 200 µg/mL (≈ 454 µM). The Activity in the test on COLO 320 [18] was 64.827%; in test [19], “Dose-dependent effect”; in the test on COLO 320 [20], 51.195%; in [1], 68.3%; in [2], 0.808 mMequiv; in test [3], 40.2%. The Activity in the test with COLO 320 [21] was 83.218%; in the test with COLO 320 [22], 21.609%; in test [4], 84.6%; in test [5], 88.3%; in the test with COLO 320 [24], 9.655%. In the test on COLO 320 [23], the IC50 – broadly, the concentration that inhibits the measured activity by half – is 50 µg/mL (≈ 114 µM).
